Consider 17 molecules from patent publication US20210094971A1, “HETEROCYCLIC COMPOUNDS” (Hoffmann-La Roche Inc., priority 2019, published 2021).

Each structure is given as a SMILES string.

The target in the test is T1, MAGL (Homo sapiens, UniProt Q99685).
T1 sequence (Q99685 1-303): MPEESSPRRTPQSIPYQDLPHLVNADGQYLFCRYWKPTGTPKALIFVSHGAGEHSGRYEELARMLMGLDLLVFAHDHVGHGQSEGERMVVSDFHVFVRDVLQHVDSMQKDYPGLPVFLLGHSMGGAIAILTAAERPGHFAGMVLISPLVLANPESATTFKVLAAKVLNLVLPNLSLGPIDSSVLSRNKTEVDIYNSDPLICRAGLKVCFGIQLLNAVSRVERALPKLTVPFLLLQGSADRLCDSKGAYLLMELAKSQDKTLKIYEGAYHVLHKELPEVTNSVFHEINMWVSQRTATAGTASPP
Nature of the test: 2-AG assay (MAGL inhibitory activity, hydrolysis of 2-arachidonoylglycerol followed by mass spectrometry). The format is biochemical. Particulars: 50 pM MAGL, 8 μM 2-arachidonoylglycerol, 15 min pre-incubation, 30 min incubation at RT. On the procedure: Compounds were profiled for MAGL inhibitory activity by determining the enzymatic activity by following the hydrolysis of the natural substrate 2-arachidonoylglycerol resulting in arachidonic acid, which can be followed by mass spectrometry. This assay is hereinafter abbreviated “2-AG assay”.
The 2-AG assay was carried out in 384 well assay plates (PP, Greiner Cat# 784201) in a total volume of 20 μL. Compound dilutions were made in 100% DMSO (VWR Chemicals 23500.297) in a polypropylene plate in 3-fold dilution steps to give a final concentration range in the assay from 12.5 μM to 0.8 pM. 0.25 μL compound dilutions (100% DMSO) were added to 9 μL MAGL in assay buffer (50 mM TRIS (GIBCO, 15567-027), 1 mM EDTA (Fluka, 03690-100 ml), 0.01% (v/v) Tween. After shaking, the plate was incubated for 15 min at RT. To start the reaction, 10 μL 2-arachidonoylglycerol in assay buffer was added. The final concentrations in the assay was 50 pM MAGL and 8 μM 2-arachidonoylglyerol. After shaking and 30 min incubation at RT, the reaction was quenched by the addition of 40 μL of acetonitrile containing 4 μM of d8-arachidonic acid. The amount of arachidonic acid was traced by an online SPE system (Agilent Rapidfire) coupled to a triple quadrupole mass spectrometer (Agilent 6460). A C18 SPE cartridge (G9205A) was used in an acetonitrile/water liquid setup. The mass spectrometer was operated in negative electrospray mode following the mass transitions 303.1→259.1 for arachidonic acid and 311.1→267.0 for d8-arachidonic acid. The activity of the compounds was calculated based on the ratio of intensities [arachidonic acid/d8-arachidonic acid].
With `O=C1CO[C@H]2CCN(C(=O)N3C[C@H]4C[C@@H]3C[C@@H]4OCc3cc4c(cn3)CCCC4)C[C@H]2N1` (relative stereo) [Example 9, (4aR,8aS)-6-[rel-(1R,4R,5S)-5-(5,6,7,8-tetrahydroisoquinolin-3-ylmethoxy)-2-azabicyclo[2.2.1]heptane-2-carbonyl]-4,4a,5,7,8,8a-hexahydropyrido[4,3-b][1,4]oxazin-3-one], the midpoint of inhibition, the IC50, lay at 0.076 µM.

Regarding `O=C1CO[C@H]2CCN(C(=O)N3C[C@@H]4C[C@H](OCc5ccc(C(F)(F)F)cc5F)[C@H]3C4)C[C@H]2N1` (relative stereo) [Example 18, (4aR,8aS)-6-[rel-(1R,4S,6S)-6-[[2-fluoro-4-(trifluoromethyl)phenyl]methoxy]-2-azabicyclo[2.2.1]heptane-2-carbonyl]-4,4a,5,7,8,8a-hexahydropyrido[4,3-b][1,4]oxazin-3-one], the IC50 (usually the concentration at which inhibition is half-maximal) was 1.05 µM. This IC50 is about 14-fold higher than that of the molecule before.

In the case of `O=C1CO[C@H]2CCN(C(=O)N3C[C@H]4C[C@@H]3[C@H](OCc3ccc(C(F)(F)F)cc3F)C4)C[C@H]2N1` (relative stereo) [Example 19, (4aR,8aS)-6-[rel-(1R,4S,6R)-6-[[2-fluoro-4-(trifluoromethyl)phenyl]methoxy]-2-azabicyclo[2.2.1]heptane-2-carbonyl]-4,4a,5,7,8,8a-hexahydropyrido[4,3-b][1,4]oxazin-3-one], the IC50 amounted to 1.14 µM. Turning to `O=C1CO[C@H]2CCN(C(=O)N3CC4CC(Oc5ccccc5Cl)CC4C3)C[C@H]2N1` (stereo partly drawn) [Example 1, (4aR,8aS)-6-(5-(2-chlorophenoxy)-3,3a,4,5,6,6a-hexahydro-1H-cyclopenta[c]pyrrole-2-carbonyl)-4,4a,5,7,8,8a-hexahydropyrido[4,3-b][1,4]oxazin-3-one], the IC50 came out at 0.0089 µM.

In turn, `Cc1ccccc1OC1CC2CN(C(=O)N3CC[C@@H]4OCC(=O)N[C@@H]4C3)CC2C1` (stereo partly drawn) [Example 2, (4aR,8aS)-6-(5-(2-methylphenoxy)-3,3a,4,5,6,6a-hexahydro-1H-cyclopenta[c]pyrrole-2-carbonyl)-4,4a,5,7,8,8a-hexahydropyrido[4,3-b][1,4]oxazin-3-one] registered an IC50 of 0.0198 µM. Molecule `O=C1CO[C@H]2CCN(C(=O)N3CC4CN(S(=O)(=O)c5ccccc5)CC4C3)C[C@H]2N1` (stereo partly drawn) [Example 3, (4aR,8aS)-6-(5-(benzenesulfonyl)-1,3,3a,4,6,6a-hexahydropyrrolo[3,4-c]pyrrole-2-carbonyl)-4,4a,5,7,8,8a-hexahydropyrido[4,3-b][1,4]oxazin-3-one] had an IC50 of 2.28 µM. With `O=C1CO[C@H]2CCN(C(=O)N3CC4CN(S(=O)(=O)c5ccc(C(F)(F)F)cc5)CC4C3)C[C@H]2N1` (stereo partly drawn) [Example 4, (4aR,8aS)-6-(5-[4-(trifluoromethyl)phenyl]sulfonyl-1,3,3a,4,6,6a-hexahydropyrrolo[3,4-c]pyrrole-2-carbonyl)-4,4a,5,7,8,8a-hexahydropyrido[4,3-b][1,4]oxazin-3-one], the IC50 amounted to 0.929 µM.

The molecule `O=C1CO[C@H]2CCN(C(=O)N3CC4CN(S(=O)(=O)c5ccc(F)cc5Cl)CC4C3)C[C@H]2N1` (stereo partly drawn) [Example 5, (4aR,8aS)-6-(5-(2-chloro-4-fluoro-phenyl)sulfonyl-1,3,3a,4,6,6a-hexahydropyrrolo[3,4-c]pyrrole-2-carbonyl)-4,4a,5,7,8,8a-hexahydropyrido[4,3-b][1,4]oxazin-3-one] came in with a half-maximal inhibitory concentration (IC50) of 0.676 µM.

Molecule `O=C1CO[C@H]2CCN(C(=O)N3C[C@@H]4[C@H](C3)[C@H]4c3ccn(-c4ccc(F)cc4)n3)C[C@H]2N1` [Example 6, (4aR,8aS)-6-[(1R,5S,6r)-6-[1-(4-fluorophenyl)pyrazol-3-yl]-3-azabicyclo[3.1.0]hexane-3-carbonyl]-4,4a,5,7,8,8a-hexahydropyrido[4,3-b][l,4]oxazin-3-one] yielded an IC50 of 0.261 µM. Regarding `O=C1CO[C@H]2CCN(C(=O)N3C[C@@H]4[C@H](C3)[C@H]4c3ccn(-c4ccc(F)c(C(F)(F)F)c4)n3)C[C@H]2N1` [Example 7, (4aR,8aS)-6-[(1R,5S,6r)-6-[1-[4-fluoro-3-(trifluoromethyl)phenyl]pyrazol-3-yl]-3-azabicyclo[3.1.0]hexane-3-carbonyl]-4,4a,5,7,8,8a-hexahydropyrido[4,3-b][1,4]oxazin-3-one], the IC50 worked out at 0.0453 µM. In the case of `O=C1CO[C@H]2CCN(C(=O)N3C[C@@H]4[C@H](C3)[C@H]4c3ccn(-c4ccc(F)cc4Cl)n3)C[C@H]2N1` [Example 8, (4aR,8aS)-6-[(1R,5S,6r)-6-[1-(2-chloro-4-fluoro-phenyl)pyrazol-3-yl]-3-azabicyclo[3.1.0]hexane-3-carbonyl]-4,4a,5,7,8,8a-hexahydropyrido[4,3-b][1,4]oxazin-3-one], the half-inhibitory concentration (IC50) stood at 0.112 µM. Under `O=C1CO[C@H]2CCN(C(=O)N3C[C@@H]4[C@@H](COc5ccc(F)cc5Cl)[C@@H]4C3)C[C@H]2N1` [Example 12, (4aR,8aS)-6-[(1R,5S,6r)-6-[(2-chloro-4-fluoro-phenoxy)methyl]-3-azabicyclo[3.1.0]hexane-3-carbonyl]-4,4a,5,7,8,8a-hexahydropyrido[4,3-b][1,4]oxazin-3-one] stands 0.0063 µM. With `O=C1CO[C@H]2CCN(C(=O)N3CC4CCC(C3)C4COc3ccc(F)cc3Cl)C[C@H]2N1` (stereo partly drawn) [Example 13, (4aR,8aS)-6-[8-[(2-chloro-4-fluoro-phenoxy)methyl]-3-azabicyclo[3.2.1]octane-3-carbonyl]-4,4a,5,7,8,8a-hexahydropyrido[4,3-b][1,4]oxazin-3-one] the figure was 0.0051 µM. With `O=C1CO[C@H]2CCN(C(=O)N3CC4CC(Oc5ccc(F)cc5Cl)CC4C3)C[C@H]2N1` (stereo partly drawn) [Example 14, (4aR,8aS)-6-[5-(2-chloro-4-fluoro-phenoxy)-3,3a,4,5,6,6a-hexahydro-1H-cyclopenta[c]pyrrole-2-carbonyl]-4,4a,5,7,8,8a-hexahydropyrido[4,3-b][1,4]oxazin-3-one] the figure was 0.0035 µM. On to `O=C1CO[C@H]2CCN(C(=O)N3CC4CC(OCc5ccc(F)cc5Cl)CC4C3)C[C@H]2N1` (stereo partly drawn) [Example 15, (4aR,8aS)-6-[5-[(2-chloro-4-fluoro-phenyl)methoxy]-3,3a,4,5,6,6a-hexahydro-1H-cyclopenta[c]pyrrole-2-carbonyl]-4,4a,5,7,8,8a-hexahydropyrido[4,3-b][1,4]oxazin-3-one], for which it took 0.011 µM to reach half-maximal inhibition (IC50).

For `O=C1CO[C@H]2CCN(C(=O)N3CC4CC(OCc5ccc(C(F)(F)F)cc5F)CC4C3)C[C@H]2N1` (stereo partly drawn) [Example 16, (4aR,8aS)-6-[5-[[2-fluoro-4-(trifluoromethyl)phenyl]methoxy]-3,3a,4,5,6,6a-hexahydro-1H-cyclopenta[c]pyrrole-2-carbonyl]-4,4a,5,7,8,8a-hexahydropyrido[4,3-b][1,4]oxazin-3-one], inhibition was half-maximal at 0.0859 µM (IC50).

Regarding `O=C1CO[C@H]2CCN(C(=O)N3CC4CC(Oc5ccc(C(F)(F)F)cc5F)CC4C3)C[C@H]2N1` (stereo partly drawn) [Example 17, (4aR,8aS)-6-[5-[2-fluoro-4-(trifluoromethyl)phenoxy]-3,3a,4,5,6,6a-hexahydro-1H-cyclopenta[c]pyrrole-2-carbonyl]-4,4a,5,7,8,8a-hexahydropyrido[4,3-b][1,4]oxazin-3-one], the IC50 amounted to 0.0047 µM.
